According to patent publication US12006289B2, “Potassium channel inhibitors” (Saniona A/S, priority 2019, dated 2024):

Tests used:
[1] = Solubility of compounds in 50 mM phosphate buffer pH 7.4 by HPLC; type: physicochemical
Method: Solubility is calculated using the following formula: […]

[2] = molecular target: erythrocyte KCa3.1 channels (Homo sapiens (Human), UniProt O15554); assay: Erythrocyte KCa3.1 assay; type: cell-based; conditions: human erythrocytes, A23187-activated, 37° C.; read-out: RBC K (in vitro) Human IC50
Method: Human blood was drawn from healthy human volunteers in a standard heparinized blood sampling vial (Vacutainer, Li/heparin, BD Bioscience, Plymouth, UK). The erythrocytes were packed by centrifugation, and the plasma and buffy coat were removed by aspiration. Erythrocytes were washed three times in the experimental salt solution and then stored at 0° C. until use. Blood samples from NMRI mice or from Wistar rats were treated similarly. The methodological principle is outlined in Macey et al. (1978) and further described in Strøbæk et al. (2013). Activation of the erythrocyte KCa3.1 channels were obtained by addition of the Ca^2+ ionophore A23187, which causes synchronized hyperpolarization, which is reported as a CCCP-mediated shift in the unbuffered extracellular pH of the erythrocyte suspension. Standard procedure: 3 mL unbuffered experimental salt solution (in mM: 2 KCl, 154 NaCl, 0.05 CaCl2) was heated to 37° C. with stirring. Packed erythrocytes were added (50 μL, final cytocrit 1.5%), and the extracellular pH (pHo) followed with a glass/calomel (pHG200-8/REF200, Radiometer, Denmark) electrode pair. CCCP (3 μL, final concentration 20 μM) was added followed by varying concentrations of test compounds (DMSO concentration constant). After pH stabilization at ˜7.2, A23187 (3 μL, final concentration 0.33 μM) was added to initiate the experiment. After the peak hyperpolarization was attained, the intracellular pH (pHi constant during the experiment) was found by haemolysing the erythrocytes via addition of 100 μL of Triton-X100.
The erythrocyte membrane potential, Vm, was calculated according to: Vm=−61.5 mV×(pHo−pHi) and the fractional remaining Ca^2+-activated K^+-conductance at the concentration C of blocker, fGK(C), was calculated from
[formula] where the K^+ equilibrium potential EK=−107 mV, the Cl^− equilibrium potential ECl=−12 mV and the Vm(0) and Vm(C) are the peak hyperpolarizations in the control and in the presence of a concentration of C of blocker respectively.
IC50 values for compounds were calculated from a plot of fGK(C) versus C by a fit to the Hill equation, using a custom program written in the IGOR-Pro software (WaveMetrics, Lake Oswego, OR, USA). All IC50-values are reported in μM.

[3] = statement in words; cited from earlier work
mouse model of ARDS = conditions: treatment with classical KCa3.1 inhibitors; cited from earlier work
[4] = 50 mM potassium phosphate buffer pH 7.40, 16 hr at ~25° C., 1600 μM incubation concentration

SMILES | IC50 [2] | Measured Solubility in pH 7.4 phosphate buffer (mg/ml) [1, 4] | Measured Solubility in pH 7.4 phosphate buffer (μM) (rounded) [1, 4] | other results
COC(=O)N(CC1(N)CC1)C1(c2ccc(F)c(C(F)(F)F)c2)CC1 [[3], Methyl ((1-aminocyclopropyl)methyl)(1-(4-fluoro-3-(trifluoromethyl)phenyl)cyclopropyl) carbamate] | 160 nM | 0.5599 mg/ml | 1600 μM | –
O=C1CSc2ccccc2N1Cc1cccc(C(F)(F)F)c1 [NS6180, 4-[[3-(Trifluoromethyl)-phenyl]methyl]-2H-1,4-benzothiazin-3(4H)-one, reference compound] | – | – | – | Measured Solubility in pH 7.4 phosphate buffer (mg/ml) ([1]; 16 h, pH 7.4): 0.0009 mg/ml
CC(C)(N)CN(CC1CC1)C1(c2ccc(F)c(C(F)(F)F)c2)CC1 [[8], N1-(cyclopropylmethyl)-N1-(1-(4-fluoro-3-(trifluoromethyl)phenyl)cyclopropyl)-2-methyl propane-1,2-diamine] | 14 nM | – | – | Measured Solubility in pH 7.4 phosphate buffer (μM) (rounded) ([1]; 16 h, pH 7.4): 1500 μM
CN1CCC1CN(CC(C)(C)O)C1(c2ccc(F)c(C(F)(F)F)c2)CC1 (centres unmarked) [[16], 1-((1-(4-fluoro-3-(trifluoromethyl)phenyl)cyclopropyl)((1-methylazetidin-2-yl)methyl)amino)-2-methylpropan-2-ol] | 400 nM | – | – | Measured Solubility in pH 7.4 phosphate buffer (μM) (rounded) ([1]; 16 h, pH 7.4): 1600 μM
COC(=O)N(CC(C)(C)N)C1(c2cc(C(F)(F)F)c(F)cn2)CC1 [[17], Methyl (2-amino-2-methylpropyl)(1-(5-fluoro-4-(trifluoromethyl)pyridin-2-yl)cyclopropyl) carbamate] | 400 nM | 0.5636 mg/ml | 1500 μM | –
NC(=O)C(c1ccccc1)(c1ccc(F)cc1)c1ccc(F)cc1 [senicapoc] | – | – | – | Water solubility [3]: extremely low water solubility; Gas exchange in mouse model of ARDS (mouse model of ARDS): improved gas exchange
COC(=O)N(CC(C)(C)NC(C)=O)C1(c2ccc(F)c(C(F)(F)F)c2)CC1 [[24], Methyl (2-acetamido-2-methylpropyl)(1-(4-fluoro-3-(trifluoromethyl)phenyl)cyclopropyl)carbamate] | 310 nM | – | – | –
COC(=O)N(CC(C)(C)N)C1(c2ccc(F)c(OC(F)(F)F)c2)CC1 [[20], Methyl (2-amino-2-methylpropyl)(1-(4-fluoro-3-(trifluoromethoxy)phenyl)cyclopropyl)carbamate] | 92 nM | – | – | –
COC(=O)N(CCN(C)C)C1(c2ccc(F)c(C(F)(F)F)c2)CC1 [[1], Methyl N-(2-(dimethylamino)ethyl)-N-(1-(4-fluoro-3-(trifluoromethyl)phenyl)cyclopropyl) carbamate] | 330 nM | 0.5409 mg/ml | 1600 μM | –
Clc1ccccc1C(c1ccccc1)(c1ccccc1)n1cccn1 [TRAM-34] | – | – | – | Water solubility [3]: extremely low water solubility; Gas exchange in mouse model of ARDS (mouse model of ARDS): improved gas exchange
COC(=O)N(CC(C)(C)NO)C1(c2ccc(F)c(C(F)(F)F)c2)CC1 [[33], Methyl (1-(4-fluoro-3-(trifluoromethyl)phenyl)cyclopropyl)(2-(hydroxyamino)-2-methylpropyl)carbamate] | 120 nM | – | – | –
COC(=O)N(CC(C)(C)N)C1(c2ccc(F)c(C(F)(F)F)c2)CC1 [[2], Methyl (2-amino-2-methylpropyl)(1-(4-fluoro-3-(trifluoromethyl)phenyl)cyclopropyl)carbamate] | 86 nM | – | – | Measured Solubility in pH 7.4 phosphate buffer (μM) (rounded) ([1]; 16 h, pH 7.4): 1600 μM

Now from value to compound, other results behind:

IC50 [2] | Measured Solubility in pH 7.4 phosphate buffer (mg/ml) [1, 4] | Measured Solubility in pH 7.4 phosphate buffer (μM) (rounded) [1, 4] | SMILES | other results
200 nM | – | – | CC(C)OC(=O)N(C[C@@H]1CCCN1)C1(c2ccc(F)c(C(F)(F)F)c2)CC1 [[44], Isopropyl (S)-(1-(4-fluoro-3-(trifluoromethyl)phenyl)cyclopropyl)(pyrrolidin-2-ylmethyl)carbamate] | Measured Solubility in pH 7.4 phosphate buffer (μM) (rounded) ([1]; 16 h, pH 7.4): 1600 μM
360 nM | – | – | COC(=O)N(C[C@@H]1CCN1)C1(c2ccc(F)c(C(F)(F)F)c2)CC1 [[53], Methyl (S)-(azetidin-2-ylmethyl)(1-(4-fluoro-3-(trifluoromethyl)phenyl)-cyclopropyl)carbamate] | Measured Solubility in pH 7.4 phosphate buffer (μM) (rounded) ([1]; 16 h, pH 7.4): 1700 μM
110 nM | 0.5679 mg/ml | 1500 μM | CCOC(=O)N(C[C@@H]1CCCN1C)C1(c2ccc(F)c(C(F)(F)F)c2)CC1 [[35], Ethyl (S)-(1-(4-fluoro-3-(trifluoromethyl)phenyl)cyclopropyl)((1-methylpyrrolidin-2-yl)methyl) carbamate] | –
81 nM | – | – | COC(=O)N(C[C@H]1CCCN1C)C1(c2ccc(F)c(C(F)(F)F)c2)CC1 [[31], Methyl (R)-(1-(4-fluoro-3-(trifluoromethyl)phenyl)cyclopropyl)((1-methylpyrrolidin-2-yl)methyl)carbamate] | Measured Solubility in pH 7.4 phosphate buffer (μM) (rounded) ([1]; 16 h, pH 7.4): 1500 μM
300 nM | 0.5918 mg/ml | 1600 μM | COC(=O)N(C[C@@H]1CCCN1C)C1(c2ccc(F)c(C(F)(F)F)c2)CC1 [[27], Methyl (S)-(1-(4-fluoro-3-(trifluoromethyl)phenyl)cyclopropyl) ((1-methylpyrrolidin-2-yl)methyl) carbamate] | –
320 nM | 0.3218 mg/ml | 800 μM | CS(=O)(=O)N(C[C@@H]1CCCN1)C1(c2ccc(F)c(C(F)(F)F)c2)CC1 [[36], (S)—N-(1-(4-fluoro-3-(trifluoromethyl)phenyl)cyclopropyl)-N-(pyrrolidin-2-ylmethyl) methanesulfonamide] | –
480 nM | – | – | COC(=O)N(CCN)C1(c2ccc(F)c(C(F)(F)F)c2)CC1 [[7], Methyl (2-aminoethyl)(1-(4-fluoro-3-(trifluoromethyl)phenyl)cyclopropyl)carbamate] | –
340 nM | 0.6118 mg/ml | 1500 μM | COC(=O)N(C[C@H]1COCCN1)C1(c2ccc(F)c(C(F)(F)F)c2)CC1 [[42], Methyl (S)-(1-(4-fluoro-3-(trifluoromethyl)phenyl)cyclopropyl)(morpholin-3-ylmethyl) carbamate] | –
120 nM | – | – | CCOC(=O)N(C[C@H]1CCCN1)C1(c2ccc(F)c(C(F)(F)F)c2)CC1 [[38], Ethyl (R)-(1-(4-fluoro-3-(trifluoromethyl)phenyl)cyclopropyl)(pyrrolidin-2-ylmethyl)carbamate] | –
210 nM | – | – | COC(=O)N(CC1CCN1)C1(c2ccc(F)c(C(F)(F)F)c2)CC1 (centres unmarked) [[26], Methyl (azetidin-2-ylmethyl)(1-(4-fluoro-3-(trifluoromethyl)phenyl)cyclopropyl)carbamate] | –
